Experimental findings from patent publication US11226337B2, “Chemoproteomic profiling of protein electrophilic and oxidative post-translational modifications” (Zenagem, LLC, priority 2017, dated 2022) are described below.

What all share (experiment): SILAC RP-ABPP
What all share (type): cell-based

The target of experiment [1] is T1, CTSB Cathepsin B (P07858) (Homo sapiens, UniProt P07858).
T1 construct: In Situ Labelling of Cells with Hydrazine Probes for MS Experiments; endogenous in cells; host or cells: HEK293T and MDA-MB-231
The settings on record: SILAC H/L, MDA-MB-231.

The target of experiment [2] is T2, ALDOA Fructosebisphosphate aldolase A (P04075) (Homo sapiens, UniProt P04075).
T2 construct: shared by both the endogenous and recombinant forms of these proteins; endogenous in cells; host or cells: HEK293T and MDA-MB-231
T2 sequence (P04075 1-364): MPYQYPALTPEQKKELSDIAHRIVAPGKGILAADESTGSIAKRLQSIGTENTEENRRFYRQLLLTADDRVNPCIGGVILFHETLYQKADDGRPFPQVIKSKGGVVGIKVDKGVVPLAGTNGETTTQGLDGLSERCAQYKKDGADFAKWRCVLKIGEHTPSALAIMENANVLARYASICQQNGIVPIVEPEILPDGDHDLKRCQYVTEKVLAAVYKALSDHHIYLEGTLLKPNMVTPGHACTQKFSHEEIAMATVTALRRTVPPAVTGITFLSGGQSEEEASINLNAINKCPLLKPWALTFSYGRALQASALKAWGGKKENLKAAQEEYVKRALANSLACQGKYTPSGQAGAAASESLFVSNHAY
As to conditions: SILAC H/L, HEK293T.

Experiment [3] concerns the target T3, EPDR1 Mammalian ependyminrelated (Q9UM22) (Homo sapiens, UniProt Q9UM22).
T3 construct: shared by both the endogenous and recombinant forms of these proteins; endogenous in cells; host or cells: HEK293T and MDA-MB-231
T3 sequence (Q9UM22 38-224): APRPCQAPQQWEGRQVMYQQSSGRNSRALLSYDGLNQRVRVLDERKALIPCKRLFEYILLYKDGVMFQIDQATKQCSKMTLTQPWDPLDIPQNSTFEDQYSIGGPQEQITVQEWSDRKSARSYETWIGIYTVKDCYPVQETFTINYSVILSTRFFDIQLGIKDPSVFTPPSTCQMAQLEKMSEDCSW
As to conditions: SILAC H/L, MDA-MB-231.

Experiment [4] addresses T4, GNS Nacetylglucosamine6sulfatase (P15586) (Homo sapiens, UniProt P15586).
T4 construct: In Situ Labelling of Cells with Hydrazine Probes for MS Experiments; endogenous in cells
T4 sequence (P15586 37-552): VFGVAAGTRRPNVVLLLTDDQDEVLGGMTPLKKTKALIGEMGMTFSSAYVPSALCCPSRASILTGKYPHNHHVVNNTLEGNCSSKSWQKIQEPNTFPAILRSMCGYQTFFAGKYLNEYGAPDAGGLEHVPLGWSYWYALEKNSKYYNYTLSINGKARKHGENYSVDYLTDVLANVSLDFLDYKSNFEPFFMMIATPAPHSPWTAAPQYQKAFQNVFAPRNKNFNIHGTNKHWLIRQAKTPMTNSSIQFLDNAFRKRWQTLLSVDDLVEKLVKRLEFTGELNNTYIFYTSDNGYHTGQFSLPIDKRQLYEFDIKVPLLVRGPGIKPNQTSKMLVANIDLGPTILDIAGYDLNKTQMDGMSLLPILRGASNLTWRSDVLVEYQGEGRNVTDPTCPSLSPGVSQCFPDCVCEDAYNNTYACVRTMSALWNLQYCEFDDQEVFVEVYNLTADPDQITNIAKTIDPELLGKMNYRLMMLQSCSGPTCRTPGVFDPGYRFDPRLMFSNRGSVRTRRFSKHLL
As to conditions: SILAC H/L, MDA-MB-231.

On to `C#CCNN.Cl` [probe 1, prop-2-yn-1-ylhydrazine hydrochloride], for which the enrichment ratioavg in experiment [1] (probe 1 3 mM 0.5 h vs probe 3) was 9; in experiment [2] (probe 1 3 mM 0.5 h vs probe 3), 16; in experiment [3] (probe 1 3 mM 0.5 h vs probe 3), 20; in experiment [4] (probe 1 3 mM 0.5 h vs probe 3) it was 10. In addition, the competition ratioavg in experiment [1] (probe 1 vs probe 1+10x probe 3) turned out to be 3; in experiment [2] (probe 1 vs probe 1+10x probe 3) it was 3; in experiment [3] (probe 1 vs probe 1+10x probe 3), 20; in experiment [4] (probe 1 vs probe 1+10x probe 3) it was 3.
On to `C#CCCNC(=O)c1ccc(NN)cc1.Cl` [probe 2, N-(but-3-yn-1-yl)-4-hydrazinylbenzamide hydrochloride], for which the enrichment ratioavg in experiment [1] (probe 2 1 mM 0.5 h vs probe 4) turned out to be 14; in experiment [2] (probe 2 1 mM 0.5 h vs probe 4), 12; in experiment [3] (probe 2 1 mM 0.5 h vs probe 4), 20; in experiment [4] (probe 2 1 mM 0.5 h vs probe 4), 7. In addition, the competition ratioavg in experiment [1] (probe 2 vs probe 2+10x probe 4) was 5; in experiment [2] (probe 2 vs probe 2+10x probe 4), 5; in experiment [3] (probe 2 vs probe 2+10x probe 4) it was 5; in experiment [4] (probe 2 vs probe 2+10x probe 4), 3.
